# “And” between values parts separate entries of the source, which are not always exact repeats. Identical values can stand only once. Like-named read-outs stand apart in the source and are kept apart here.
# Legend:
# Experiment in all cases: Synergy test, high resolution MIC microtiter plate assay
# Format in all cases: cell-based
# [1] = tested on: Candida albicans (C. albicans—ATCC 10231); conditions: for MIC of component acting alone (end point): C. albicans, Ag-polymer on active silver ion basis; for MIC: Candida albicans, read-out: MIC of component acting alone (end point); for Ca (Component A in combination): Hydrogen Peroxide combined with Ag-polymer formulation
# Source text: (§1) One measure of synergism is the industrially accepted method described by Kull, F. C.; Eisman, P. C.; Sylwestrowicz, H. D. and Mayer, R. L., in Applied Microbiology 9:538-541 (1961), using the ratio determined by the formula: Ca/CA+Cb/CB=Synergy Index (“SI”) wherein:
# (§2) CA=concentration of compound A (first component) in ppm, acting alone, which produced an end point (MIC of Compound A).
# (§3) Ca=concentration of compound A in ppm, in the mixture, which produced an end point.
# (§4) CB=concentration of compound B (second component) in ppm, acting alone, which produced an end point (MIC of Compound B).
# (§5) Cb=concentration of compound B in ppm, in the mixture, which produced an end point.
# (§6) When the sum of Ca/CA and Cb/CB is greater than one, antagonism is indicated. […] The lower the SI, the greater the synergy shown by that particular mixture. The minimum inhibitory concentration (MIC) of an antimicrobial compound is the lowest concentration tested under a specific set of conditions that prevents the growth of added microorganisms.
# (§7) Synergy tests were conducted using standard microtiter plate assays with media designed for optimal growth of the test microorganism. Soybean Casein Digest Broth (Tryptic Soy Broth, TSB medium) or minimal salt medium supplemented with 0.2% glucose and 0.1% yeast extract (M9GY medium) was used for testing bacteria; Potato Dextrose Broth (PDB medium) was used for testing yeast and mold. In this method, a wide range of combinations of microbicides was tested by conducting high resolution MIC assays in the presence of various concentrations of the biocides. High resolution MICs were determined by adding varying amounts of microbicide to one column of a microtitre plate and doing subsequent ten-fold dilutions using an automated liquid handling system.
# (§8) […]. The bacteria were used at a concentration of about 1-6×10^6 bacteria per mL and the yeast and mold at 1-5×10^5 fungi per mL. These microorganisms are representative of natural contaminants in many consumer and industrial applications. […] (yeast and mold) or 30° C. (bacteria).
# (§9) The end point values in the following examples for the silver-polymer complex are reported on an active silver ion basis.
# [2] = tested on: Pseudomonas aeruginosa (P. aeruginosa—ATCC #15442); conditions: for MIC of component acting alone (end point): P. aeruginosa, Ag-polymer on active silver ion basis
# Source text: as §1, §2, §3, §4, §5, §6, §7
# (§10) The bacteria were used at a concentration of about 1-6×10^6 bacteria per mL and the yeast and mold at 1-5×10^5 fungi per mL. These microorganisms are representative of natural contaminants in many consumer and industrial applications. […] (yeast and mold) or 30° C. (bacteria).
# [3] = tested on: Staphylococcus aureus (S. aureus—ATCC #6538); conditions: for MIC of component acting alone (end point): S. aureus, Ag-polymer on active silver ion basis; for MIC: Staphylococcus aureus, read-out: MIC of component acting alone (end point)
# Source text: as §1, §2, §3, §4, §5, §6, §7, §10
# [4] = tested on: Aspergillus niger (A. niger—ATCC 16404); conditions: for MIC of component acting alone (end point): A. niger, Ag-polymer on active silver ion basis; for MIC: Aspergillus niger, read-out: MIC of component acting alone (end point)
# Source text: as §1, §2, §3, §4, §5, §6, §7, §10
# [5] = tested on: Esherichia coli (E. coli—ATCC #8739); conditions: Ag-polymer on active silver ion basis
# Source text: as §1, §2, §3, §4, §5, §6, §7, §8, §9
# [6] = tested on: Samonella choleraesuis (S. choleraesuis—ATCC #10708); conditions: S. choleraesuis, contact time 48 hour; Ag-polymer on active silver ion basis
# Source text: as §1, §2, §3, §4, §5, §6, §7
# The synergy of the combinations of the present invention was determined against four bacteria, gram positive Staphylococcus aureus (S. aureus—ATCC #6538) and gram negative Pseudomonas aeruginosa (P. aeruginosa—ATCC #15442), Samonella choleraesuis (S. choleraesuis—ATCC #10708) and Esherichia coli (E. coli—ATCC #8739), a yeast, Candida albicans (C. albicans—ATCC 10231), and a mold, Aspergillus niger (A. niger—ATCC 16404). The bacteria were used at a concentration of about 1-6×10^6 bacteria per mL and the yeast and mold at 1-5×10^5 fungi per mL. These microorganisms are representative of natural contaminants in many consumer and industrial applications. […] (yeast and mold) or 30° C. (bacteria).
# as §9
# [7] = Table 10, Sodium hypochlorite alone, as Free Cl2, contact time 24 hour
# [8] = Table 10, Sodium hypochlorite alone, as Free Cl2, contact time 48 hour
# [9] = Sodium hypochlorite (as Free Cl2) combined with Ag-polymer formulation, contact time 48 hour
# [10] = 5-Chloro-2-(2,4-dichlorophenoxy)phenol combined with Ag-polymer formulation, contact time 48 hour
# [11] = Table 12, 5-Chloro-2-(2,4-dichlorophenoxy)phenol alone, contact time 24 hour
# [12] = Table 12, 5-Chloro-2-(2,4-dichlorophenoxy)phenol alone, contact time 48 hour
# [13] = Table 11, Glutaraldehyde alone, contact time 24 hour
# [14] = Table 11, Glutaraldehyde alone, contact time 48 hour
# [15] = Table 9, Hydrogen Peroxide alone, contact time 24 hour
# [16] = Table 9, Hydrogen Peroxide alone, contact time 48 hour
# [17] = Hydrogen Peroxide combined with Ag-polymer formulation, contact time 24 hour
# [18] = Table 13, 3-Iodo-2-propynyl butylcarbamate alone, contact time 24 hour
# [19] = Table 13, 3-Iodo-2-propynyl butylcarbamate alone, contact time 48 hour
molecule,measurement,setting,value
OCl [Sodium hypochlorite],Ca (Component A alone),[1]; [7],0.9
same,Ca (Component A alone),[1]; [8],2
same,Ca (Component A in combination),"[2]; Sodium hypochlorite (as Free Cl2) combined with Ag-polymer formulation, contact time 24 hour",0.5
same,Ca (Component A in combination),[2]; [9],0.7
same,Ca (Component A alone),[2]; [7],0.7
same,Ca (Component A alone),[2]; [8],0.9
same,Ca (Component A in combination),[3]; [9],0.5
same,Ca (Component A alone),[3]; [7],0.4
same,Ca (Component A alone),[3]; [8],0.7
same,Ca (Component A alone),"[4]; Table 10, Sodium hypochlorite alone, as Free Cl2, contact time 3 days",26
same,Ca (Component A alone),"[4]; Table 10, Sodium hypochlorite alone, as Free Cl2, contact time 7 days",35
C9-C15 alkyltolylmethyltrimethylammonium chloride [reference compound],MIC of component acting alone (end point),[5]; contact time 24 hour,6 ppm
same,MIC of component acting alone (end point),[5]; contact time 48 hour,6 ppm
same,MIC of component acting alone (end point),[1]; contact time 24 hour,98 ppm
same,MIC of component acting alone (end point),[2]; contact time 24 hour,19.4 ppm
same,MIC of component acting alone (end point),[2]; contact time 48 hour,19.4 ppm
same,MIC of component acting alone (end point),[3]; contact time 24 hour,69 ppm
same,MIC of component acting alone (end point),[4]; contact time 7 days,493 ppm
"O=c1[nH]sc2ccccc12 [Benzisothiazolin-3-one, reference compound]",MIC of component acting alone (end point),[1]; contact time 24 hour,30 ppm
same,MIC of component acting alone (end point),[1]; contact time 48 hour,30 ppm
same,MIC of component acting alone (end point),[2]; contact time 24 hour,4 ppm
same,MIC of component acting alone (end point),[2]; contact time 48 hour,7 ppm
same,MIC of component acting alone (end point),[3]; contact time 24 hour,20 ppm
same,MIC of component acting alone (end point),[3]; contact time 48 hour,20 ppm
same,MIC of component acting alone (end point),[4]; contact time 3 days,43 ppm
same,MIC of component acting alone (end point),[4]; contact time 7 days,53 ppm
C12-C16 alkyl dimethylbenzylammonium chloride [reference compound],MIC of component acting alone (end point),[5]; contact time 48 hour,4.9 ppm
same,MIC of component acting alone (end point),[1]; contact time 24 hour,40.3 ppm
same,MIC of component acting alone (end point),[1]; contact time 48 hour,98 ppm
same,MIC of component acting alone (end point),[6],6.9 ppm
same,MIC of component acting alone (end point),[3]; contact time 24 hour,19.4 ppm
same,MIC of component acting alone (end point),[3]; contact time 48 hour,19.4 ppm
same,MIC of component acting alone (end point),[4]; contact time 3 days,194 ppm
same,MIC of component acting alone (end point),[4]; contact time 7 days,603 ppm
"Oc1cc(Cl)ccc1Oc1ccc(Cl)cc1Cl [5-Chloro-2-(2,4-dichlorophenoxy)phenol]",Ca (Component A in combination),"[2]; 5-Chloro-2-(2,4-dichlorophenoxy)phenol combined with Ag-polymer formulation, contact time 24 hour",20
same,Ca (Component A in combination),[2]; [10],30 and 20
same,Ca (Component A alone),[2]; [11],30
same,Ca (Component A alone),[2]; [12],43
same,Ca (Component A in combination),[3]; [10],9 and 7
same,Ca (Component A alone),[3]; [11],9
same,Ca (Component A alone),[3]; [12],11
same,Ca (Component A in combination),"[4]; 5-Chloro-2-(2,4-dichlorophenoxy)phenol combined with Ag-polymer formulation, contact time 3 days",7
same,Ca (Component A alone),"[4]; Table 12, 5-Chloro-2-(2,4-dichlorophenoxy)phenol alone, contact time 3 days",9
same,Ca (Component A alone),"[4]; Table 12, 5-Chloro-2-(2,4-dichlorophenoxy)phenol alone, contact time 7 days",30
O=CCCCC=O [Glutaraldehyde],Ca (Component A alone),[1]; [13],88
same,Ca (Component A alone),[1]; [14],88
same,Ca (Component A in combination),"[2]; Glutaraldehyde combined with Ag-polymer formulation, contact time 24 hour",13
same,Ca (Component A in combination),"[2]; Glutaraldehyde combined with Ag-polymer formulation, contact time 48 hour",16
same,Ca (Component A alone),[2]; [13],16
same,Ca (Component A alone),[2]; [14],20
same,Ca (Component A alone),[3]; [13],13
same,Ca (Component A alone),[3]; [14],20
same,Ca (Component A in combination),"[4]; Glutaraldehyde combined with Ag-polymer formulation, contact time 3 days",425
same,Ca (Component A in combination),"[4]; Glutaraldehyde combined with Ag-polymer formulation, contact time 7 days",525
same,Ca (Component A alone),"[4]; Table 11, Glutaraldehyde alone, contact time 3 days",525
same,Ca (Component A alone),"[4]; Table 11, Glutaraldehyde alone, contact time 7 days",650
"Cn1sccc1=O [MIT, 2-methyl-4-isothiazolin-3-one, reference compound]",MIC,"[1]; ATCC10231, 24 h",288 mg/L
same,MIC,"[1]; ATCC10231, 48 h",403 mg/L
same,MIC,"[2]; Pseudomonas aeruginosa, ATCC15442, 48 h, read-out: MIC of component acting alone (end point)",24.7 mg/L
same,MIC,"[3]; ATCC6538, 24 h",34.5 mg/L
same,MIC,"[3]; ATCC6538, 48 h",34.5 mg/L
same,MIC,"[4]; ATCC16404, 72 h",493 mg/L
same,MIC,"[4]; ATCC16404, 168 h",603 mg/L
OO [Hydrogen Peroxide],Ca (Component A in combination),[1]; contact time 24 hour,105 and 85
same,Ca (Component A in combination),[1]; contact time 48 hour,85
same,Ca (Component A alone),[1]; [15],130
same,Ca (Component A alone),[1]; [16],130
same,Ca (Component A in combination),[2]; [17],255
same,Ca (Component A in combination),"[2]; Hydrogen Peroxide combined with Ag-polymer formulation, contact time 48 hour",390 and 315 and 255
same,Ca (Component A alone),[2]; [15],315
same,Ca (Component A alone),[2]; [16],525
same,Ca (Component A in combination),[3]; [17],53 and 39
same,Ca (Component A alone),[3]; [15],66
same,Ca (Component A alone),[3]; [16],180
same,Ca (Component A in combination),"[4]; Hydrogen Peroxide combined with Ag-polymer formulation, contact time 7 days",1300 and 1050
same,Ca (Component A alone),"[4]; Table 9, Hydrogen Peroxide alone, contact time 3 days",1300
same,Ca (Component A alone),"[4]; Table 9, Hydrogen Peroxide alone, contact time 7 days",1750
"CC(C)(C)CC(C)(C)c1ccc(OCCOCC[N+](C)(C)Cc2ccccc2)cc1.[Cl-] [diisobutylphenoxyethoxyethyl dimethylbenzylammonium chloride, reference compound]",MIC of component acting alone (end point),[5]; contact time 24 hour,19.4 ppm
same,MIC of component acting alone (end point),[1]; contact time 48 hour,28.8 ppm
same,MIC of component acting alone (end point),[3]; contact time 24 hour,28.8 ppm
same,MIC of component acting alone (end point),[3]; contact time 48 hour,40.3 ppm
same,MIC of component acting alone (end point),[4]; contact time 7 days,40.3 ppm
CCCCNC(=O)OCC#CI [3-Iodo-2-propynyl butylcarbamate],Ca (Component A in combination),"[2]; 3-Iodo-2-propynyl butylcarbamate combined with Ag-polymer formulation, contact time 24 hour",850
same,Ca (Component A in combination),"[2]; 3-Iodo-2-propynyl butylcarbamate combined with Ag-polymer formulation, contact time 48 hour",1050
same,Ca (Component A alone),[2]; [18],1050
same,Ca (Component A alone),[2]; [19],1300
same,Ca (Component A alone),[3]; [18],14
same,Ca (Component A alone),[3]; [19],14
same,Ca (Component A alone),"[4]; Table 13, 3-Iodo-2-propynyl butylcarbamate alone, contact time 3 days",0.4
same,Ca (Component A alone),"[4]; Table 13, 3-Iodo-2-propynyl butylcarbamate alone, contact time 7 days",0.8

# From US9034352B2, “Microbicide combinations containing silver” (Rohm and Haas Company, priority 2006, dated 2015)
